{
  "source": "patent US20210115397A1",
  "about": "“METHOD FOR PROMOTING DIFFERENTIATION OF PLURIPOTENT STEM CELLS” (TOKYO INSTITUTE OF TECHNOLOGY, priority 2018, published 2021)",
  "tested_on": "RPChiPS771 hiPSCs",
  "assay": "Differentiation of RPChiPS771 into definitive endoderm with or without CHIR99021, SOX17+ cells",
  "format": "cell-based, human",
  "conditions": "protocol B (CHIR99021 added) versus protocol A (without CHIR99021)",
  "description": "Medium 1 (M1): Initiation of differentiation was done by replacing the culture with Medium 1, including DMEM with 4, 500 mg/L glucose supplemented with 3 μM CHIR99021 (Stemgent), 100 ng/mL recombinant human activin-A (Cell Guidance Systems Ltd), and 2% B27 insulin (+) supplement (Life Technologies). On days 1 and 2, the media were replaced with medium 1 without CHIR99021. Cells were fixed in 4% paraformaldehyde (NACALAI TESQUE, INC.) in PBS, permeabilized with 0.1% Triton X-100 (NACALAI TESQUE, INC.), and were then blocked with 20% Blocking One (NACALAI TESQUE, INC., Japan) in PBST (0.1% Tween-20 in PBS). Antibodies were diluted in 20% Blocking One (NACALAI TESQUE, INC., Japan) in PBST (0.1% Tween-20 in PBS). Cells were counterstained with […] (DAPI) (Roche Diagnostics K.K., Switzerland). The following primary antibodies were used: mouse anti-Oct3/4 (Santa Cruz Biotechnology, Inc.), goat anti-Sox17 (R&D Systems, Inc.), goat anti-PDX1 (R&D Systems, Inc.), guinea pig anti-insulin (Dako), rabbit anti-C-peptide (Cell Signaling Technology, Inc.), and mouse anti-Nkx6.1 (Developmental Studies Hybridoma Bank). […] Positive cells versus total cells (DAPI-positive cells) were quantified using ImageXpress Micro cellular imaging system (Molecular Devices, LLC.).",
  "data": [
    {"smiles": "Cc1c[nH]c(-c2cnc(NCCNc3ccc(C#N)cn3)nc2-c2ccc(Cl)cc2Cl)n1", "note": "[CHIR99021, 6-[[2-[[4-(2,4-dichlorophenyl)-5-(4-methyl-1H-imidazole-2-yl)-2-pyrimidinyl]amino]ethyl]amino]nicotinonitrile]", "values": [
      {"measurement": "proportion of SOX17+ cells", "value": "a higher proportion of SOX17+ cells overall"}
    ]}
  ]
}
